The values that follow come from ChEMBL document CHEMBL3507680, “University of Dundee, Gates Library screen for HepG2 cell viability”.

The nature of this data set: Human HepG2 cell viability assay in 384 well format. Also on record: dose 125 nL, time 70.5 hour; cytotoxicity at 70.5 h: concentration not given beside the values. It is filed as toxicity, cell-based. The conditions noted are these: HepG2 cells, read-out: Inhibition.
Turning to `CCc1nc(CN2CCCC(NCc3cnn(C(C)(C)C)c3)C2)no1` (stereo not given), the cytotoxicity at 70.5 h was -12.7%.
Next, `CCCN(C(=O)CN1CCN(CCO)CC1)C1=CCCCC1`: -0.879%; `Cc1ccc(-c2noc([C@H](N)CC(C)C)n2)nn1`: 7.92%.
Take `Cc1ccccc1C1(C(=O)N2CCCC(n3cncn3)C2)CC1` (stereo not given): the cytotoxicity at 70.5 h was -10.8%.
For `NS(=O)(=O)CCNC(=O)c1cc2ccccc2nc1N1CCCC1` the value was -5.72%.
Take `CN1C(=O)c2cccc(NC(=O)c3ccc4c(c3)OCCO4)c2C1=O`: the cytotoxicity at 70.5 h stood at 21.1%.
For `CNC(=O)NC(=O)CN1CCN(c2ccc(C(=O)OC)cc2)CC1C` (stereo not given) the value was -7.85%; for `CCn1ccnc1CN1CCN(C(C)C(=O)NC2CCCCC2)CC1` (stereo not given), 33.2%; for `COCCn1nc(C(=O)N2CCCC2c2cccc(F)c2)ccc1=O` (stereo not given), -8.14%.
For `Cc1nnc2n1CCN(C(=O)c1cn(-c3ccccc3)nn1)C2` the value was -1.52%; for `CCn1c(CN(C)C(=O)c2ccc(O)nc2)nc2ccccc21`, -5.75%; for `O=C(Cc1cn2ccsc2n1)N1CCCC(n2ccnc2)C1` (stereo not given), -2.03%.
For `CCC(=O)N1Cc2nccn2CC(CN(C)Cc2cccnc2)C1` (stereo not given), the cytotoxicity at 70.5 h is -17.9%.
For `Cc1nn(C)cc1CN(C)C(=O)c1cccnc1` the value was 8.22%; for `Cc1ccccc1-c1cc(CC2(C(=O)O)CCOCC2)on1`, -6.86%; for `O=C1[C@H]2CN(CC3CCOCC3)C[C@H]2CN1c1ccsc1`, -1.42%.
Regarding `Cc1ccc(N2CCO[C@H]3CN(Cc4ccccn4)C[C@H]32)nn1`, the cytotoxicity at 70.5 h is -9.99%.
For `Cc1ccc(N2CCC3(CCN(Cc4nccs4)CC3)CC2)nn1` the value was -7.07%; for `CCOc1ncccc1CNC(=O)c1cccc(C)n1`, -17.3%.
Next, `Cc1ncc(CNC(=O)NCc2c(F)cccc2OC(F)F)s1`: -0.321%.
Next, `CCn1ncnc1C(C)NC(=O)C1CCN(Cc2ccco2)CC1` (stereo not given): -0.537%; `CN(Cc1ccsc1)C(=O)CN1CCOC(Cn2cccn2)C1` (stereo not given): 29%; `COc1ncccc1CN1C[C@H]2CCN(C(C)C)C[C@H]2C1`: -4.86%.
For `CS(=O)(=O)N1CC[C@]2(C[C@@H](Oc3ccccn3)CO2)C1`, the cytotoxicity at 70.5 h is -3.36%.
Next, `CC(=O)N1CCO[C@@H]2CN(C(=O)NCc3ccccc3)CC[C@@H]2C1`: 9.54%; `Cc1cccc(C(C(=O)NC(C)(C)CN2CCCC2)N(C)C)c1` (stereo not given): -8.64%.
Next, `CCN(Cc1cnn(CC)c1)Cc1c(Cl)cncc1Cl`: -2.13%; `CC(=O)N1CCC(c2cc3c(ncn3C)c(-c3cnn(C)c3)n2)CC1`: -8.6%.
For `Cc1cc(C)n(CCCN(C)C(=O)[C@H]2CCCO2)n1` the value was -14.9%; for `Cc1cc(CN2CCN(C(=O)NC(C)c3ccc(C)o3)CC2)on1` (stereo not given), -9.49%.
As for `O=C(Cn1ccnc1)N1C[C@@H]2CC[C@H](Oc3ccccc3Cl)[C@@H]2C1`, the cytotoxicity at 70.5 h was found to be 1.01%.
For `COc1ccc(C(=O)N(C)Cc2cc(C)on2)c(OC)c1` the value was -4.71%; for `Cc1nn(C)cc1CN(C)C(=O)c1cnccn1`, 1.11%.
For `NCc1cccc(NC(=O)CCN2CCOCC2)c1` the value was -9.57%; for `Cc1csc(N2CCN(C(=O)CCNc3ncccn3)CC2)n1`, -11.3%.
For `COc1cc(C(=O)N(CCC#N)Cc2ccccn2)cc(OC)c1C` the value was -6.63%; for `COCc1noc(Cn2c(=O)[nH]c3ccccc32)n1`, -10.2%; for `CCc1nnc(Nc2cccc(C3CCN(C)CC3)n2)s1`, 35%.
As to `CN(C)c1nc(N)nc(CN2CCCC2c2cccs2)n1` (stereo not given), the cytotoxicity at 70.5 h stood at 0.514%.
Turning to `Cc1nc(COC[C@@H]2CC[C@H]3NCC[C@H]3O2)cs1`, the cytotoxicity at 70.5 h is 38.8%.
Next, `CC(C)NC1CCc2c(ccc(=O)n2CCN(C)C)C1` (stereo not given): 7.71%; `CN(C)C(=O)c1cccc(CN2CCN(CCO)CC2)c1`: 38.5%; `CCOc1ncccc1C(=O)N1CCCC(c2nccn2CCOC)C1` (stereo not given): -9.63%.
Next, `COc1cc(C(=O)NC(CC(=O)O)c2cccs2)cc(OC)c1C` (stereo not given): -6.87%; `Cc1nn(Cc2ccccc2)c(C)c1CNC1CCc2ncnn2C1` (stereo not given): 0.852%.
For `CS(=O)(=O)c1ccc(-c2nc(C(=O)N3CCCC3)n3ccccc23)cc1` the value was -8.24%.
As to `O=C(Cn1ccc(=O)[nH]c1=O)Nc1ccccc1F`, the cytotoxicity at 70.5 h was -4.99%.
Next, `O=C1CC2(CCN(C(=O)Cc3cc4c(cc3Cl)OCCO4)C2)C(=O)N1` (stereo not given): -5.25%; `O=C(CCNc1ncccn1)NCCc1ccc(Cl)s1`: -3.42%.
With `O=C(NCc1cncc2c1CCN(C1CCOCC1)C2)c1ccno1`, the cytotoxicity at 70.5 h was -7.6%.
For `CN1[C@@H](C(=O)NCC2CC2)C[C@@H]2CN(c3ncccn3)C[C@@H]21` the value was -3.13%; for `Cn1c(C(=O)NS(C)(=O)=O)ccc1-c1ccccc1`, -6.29%; for `CCCNC(=O)c1ncn2c1CN(CC(C)C)S(=O)(=O)c1ccccc1-2`, 13.4%.
Next, `O=C(c1ncccn1)N1C[C@H]2CCC[C@@]2(COCc2ccncc2)C1`: 9.21%; `Cc1ccc(CN2CCC3(CC2)CC(c2cccnc2)C(=O)N3C)o1` (stereo not given): -2.25%.
For `Cc1ccncc1NS(=O)(=O)c1ccc(Cl)s1` the value was -3.59%.
With `CCn1c(CC2CCN(C(=O)c3cc(CC(C)C)on3)CC2)n[nH]c1=O`, the cytotoxicity at 70.5 h was -2.52%.
Next, `Nc1ccnc(N2CCCC(CO)(Cc3cccc(Cl)c3)C2)n1` (stereo not given): 6.17%; `Cc1ncsc1C(=O)N(C)Cc1cccnc1`: -9.5%; `CN1CCc2[nH]nc(C(=O)N3CCCC4(CN(C)C(=O)O4)C3)c2C1` (stereo not given): -6.4%.
For `CC(=O)N1CC(c2ccnc(Nc3nccs3)n2)C1` the value was -12.9%; for `Cc1ccccc1NS(=O)(=O)c1cc2c(c(C(=O)O)c1)OCCO2`, 6.41%.
With `Cc1nc2c(c(N3CC=CC3)n1)CCN(c1ncccc1C(N)=O)CC2`, the cytotoxicity at 70.5 h is -2.97%.
Next, `O=C1CSC(c2ccc(Cl)cc2Cl)c2c(n(C3CCOCC3)[nH]c2=O)N1` (stereo not given): -23.1%; `Cc1ccc(Cn2nc(C)c3c(C(=O)O)c(Cl)c(C4CC4)nc32)cc1`: -4.45%; `CC(O)CN1CCN(C(=O)Cc2ccccc2Cl)CC1` (stereo not given): -5.1%.
Next, `Fc1cnc(N2C[C@@H]3COC[C@]3(COc3ccccn3)C2)nc1`: 19.5%.
Next, `CSc1ccc(-c2nc(CN3CCNCC3C)c(C)o2)cc1` (stereo not given): 3%; `COc1ccc2c(c1)C(=O)NC1(CC2)CCN(Cc2ccncc2)C1` (stereo not given): -0.942%.
For `Cc1nc2c(c(=O)n1C)CN(C(=O)C1CCCN(C(=O)N(C)C)C1)C2` (stereo not given), the cytotoxicity at 70.5 h is -0.169%.
